Measurements from patent US4356186A, “Acetic acid derivatives and composition containing the same” (priority 1980, dated 1982).
Where two headings read alike, the source gives them in different places.

What was measured:
[1] = Acute lethal toxicity; assay type: in vivo; settings: rat, in vivo; single oral administration, mortality on the 7th day, Litchfield and Wilcoxon
Protocol: (§1) The mortality was observed on the 7th day after single oral administration of test compounds in male Wistar rats, and the LD50 was calculated according to the method of Litchfield and Wilcoxon.

[2] = tested on: male Wistar rats; experiment: Acute lethal toxicity; assay type: in vivo; settings: from LD50, single oral administration
Protocol: as §1

[3] = tested on: stomach ulcer; experiment: Gastrointestinal ulcerogenicity; assay type: in vivo, Male Wistar rats; design: key to Average score of stomach ulcer: ulcer score 1 to 4, 4 = most severe ulcer; settings: for Number of rats having a score of stomach ulcer of 2 or more/total number of rats used / Average score of stomach ulcer: after 6 hours; for Average score of stomach ulcer: score 1 to 4
Protocol: Gastrointestinal ulcerogenicity
The test was carried out in a similar manner as disclosed in Arzneim. Forsch., 19, 36 (1969).
Male Wistar rats, weighing 130-180 g, were used. After the rats were fasted for 24 hours, the test compound was orally administered one time. After 6 hours, the rats were killed and the stomach was removed. […] The degree of stomach ulcer was scored from 1 to 4, wherein 4 is the most severe ulcer. In Table 2, there are shown the average score of stomach ulcer in each dose and also the ratio of the number of rats having a score of stomach ulcer of 2 or more to total number of rats used.

[4] = tested on: carrageenin-induced hind paw edema; experiment: Anti-inflammatory activity (carrageenin-induced hind paw edema in rats); assay type: in vivo, Male Wistar rats; settings: Rattus norvegicus, po; for inhibition in vivo at 2 mg/kg: 2 mg/kg p.o.; for inhibition in vivo at 5 mg/kg: 5 mg/kg p.o.
Protocol: Anti-inflammatory activity (carrageenin-induced hind paw edema in rats)
The test was carried out in a similar manner as disclosed in Proc. Soc. Exptl.
Male Wistar rats, weighing 100-300 g, were used. A 1% aqueous carrageenin solution (0.1 ml) was administered subcutaneously into the hind foot pad of rats. Two and three hours after the carrageenin injection, the paw volume was measured and the swelling rate was calculated based on the paw volume before the carrageenin injection. The inhibitory rate was determined as compared with the average swelling rate of the control group to which only vehicle was administered. The test compounds were administered orally one hour before the carrageenin injection.

[5] = 2 h, two hours, read-out: Inhibitory rate, two hours after the carrageenin injection
[6] = 3 h, three hours, read-out: Inhibitory rate, three hours after the carrageenin injection

CC(C(=O)OCCc1ccccc1)c1ccc2c(c1)SCC1CCCCC1C2=O (centres unmarked) [L, Phenethyl 2-(6,6a,7,8,9,10,10a,11-octahydro-11-oxodibenzo[b,e]thiepin-3-yl)propionate]
LD50 at 168 h [1]: 230 mg/kg | toxicity relative to that of indomethacin [2]: about 1/12 | Number of rats having a score of stomach ulcer of 2 or more/total number of rats used ([3]; 32 mg/kg p.o.): 1/9 | Average score of stomach ulcer ([3]; 32 mg/kg p.o.): 0.56 | Number of rats having a score of stomach ulcer of 2 or more/total number of rats used ([3]; 64 mg/kg p.o.): 0/6 | Average score of stomach ulcer ([3]; 64 mg/kg p.o.): 0.67 | gastrointestinal ulcerogenicity compared with the known aspirin ([3]; in words, from Table 2): far less gastrointestinal ulcerogenicity than the known aspirin | inhibition in vivo at 2 mg/kg [4, 5]: 20.7% | inhibition in vivo at 5 mg/kg [4, 5]: 44.8% | inhibition in vivo at 2 mg/kg [4, 6]: 24.8% | inhibition in vivo at 5 mg/kg [4, 6]: 39.1%
